Results as given in BindingDB's records for doi:10.7270/Q2F47MKR (Burnham Center For Chemical Genomics, 2010).

Assay: blockers of orphan receptor GPR35 – imaging, image-based, set 2, SAR follow-up (AID 2480)
Settings: not given

| SMILES | IC50 [nM] |
| --- | --- |
| O=C(CCCN1C(=O)/C(=C\c2ccccc2)SC1=S)Nc1cccc(C(=O)O)c1 [3-[4-(5-Benzylidene-4-oxo-2-thioxo-thiazolidin-3-yl)-butyrylamino]-benzoic acid] | 1600 |
| Clc1ccc(Cn2ncc3c(N4CCN(c5cccc(Cl)c5)CC4)ncnc32)cc1 [1-[(4-chlorophenyl)methyl]-4-[4-(3-chlorophenyl)piperazin-1-yl]pyrazolo[3,4-d]pyrimidine] | > 32000 |
| O=C(CCCN1C(=O)S/C(=C/c2ccccc2)C1=S)Nc1ccc(C(=O)O)cc1 [MLS001167691] | 1600 |
| COc1cccc(/C=C2\SC(=S)N(CCCC(=O)Nc3ccc(C(=O)O)cc3)C2=O)c1 [4-[4-[(5Z)-5-[(3-methoxyphenyl)methylidene]-4-oxo-2-sulfanylidene-1,3-thiazolidin-3-yl]butanoylamino]benzoic acid] | 651 |
| Cn1cc(/C=C/c2cc[n+](C)cc2)c2cc(Cl)ccc21 [5-chloranyl-1-methyl-3-[(E)-2-(1-methylpyridin-1-ium-4-yl)ethenyl]indole;hydroiodide] | 5170 |
| COc1ccc(/C=C2\SC(=S)N(CCCC(=O)Nc3ccc(C(=O)O)c(O)c3)C2=O)cc1OC [4-[4-[(5Z)-5-[(3,4-dimethoxyphenyl)methylidene]-4-oxo-2-sulfanylidene-1,3-thiazolidin-3-yl]butanoylamino]-2-hydroxybenzoic acid] | 151 |
| Cc1ccc2[nH]c(C)c(/C=C/c3cc[n+](C)cc3)c2c1 | 2360 |
| Cc1ccccc1N1CCN(c2ncnc3c2cnn3Cc2ccc(Cl)cc2)CC1 [1-[(4-chlorophenyl)methyl]-4-[4-(2-methylphenyl)-1-piperazinyl]pyrazolo[3,4-d]pyrimidine] | 2220 |
| CCOC(=O)c1ccc(NC(=O)CCCN2C(=O)/C(=C/c3ccccc3)SC2=S)cc1 [ethyl 4-[4-[(5Z)-5-benzylidene-4-oxo-2-sulfanylidene-1,3-thiazolidin-3-yl]butanoylamino]benzoate] | 8630 |
| COc1ccc(-c2nnc(-c3cccnc3)o2)cc1 [2-(4-methoxyphenyl)-5-pyridin-3-yl-1,3,4-oxadiazole] | > 32000 |
| C=CCn1c(C)c(/C=C/c2cc[n+](C)cc2)c2ccccc21 [2-methyl-3-[(E)-2-(1-methyl-4-pyridin-1-iumyl)ethenyl]-1-prop-2-enylindole;iodide] | 4990 |
| COc1ccc(/C=C2/SC(=S)N(CCCC(=O)Nc3ccc(O)cc3)C2=O)cc1 [N-(4-hydroxyphenyl)-4-[(5E)-5-[(4-methoxyphenyl)methylidene]-4-oxidanylidene-2-sulfanylidene-1,3-thiazolidin-3-yl]butanamide] | 1070 |
| CCOC(=O)c1ccc(NC(=O)CCCN2C(=O)/C(=C/c3ccc(C)cc3)SC2=S)cc1 [MLS-0435416.0001] | 2600 |
| O=C(CCCN1C(=O)/C(=C/c2ccccc2)SC1=S)Nc1ccc(C(=O)O)c(O)c1 [4-[4-[(5Z)-5-benzylidene-4-oxo-2-sulfanylidene-1,3-thiazolidin-3-yl]butanoylamino]-2-hydroxybenzoic acid] | 295 |
| Cc1nc(N2CCC(C)CC2)c2c(C)c(C(=O)Nc3ccc4c(c3)OCCO4)sc2n1 [N-(2,3-dihydro-1,4-benzodioxin-6-yl)-2,5-dimethyl-4-(4-methyl-1-piperidinyl)-6-thieno[2,3-d]pyrimidinecarboxamide] | 1880 |
| O=C(CCCN1C(=O)/C(=C/c2ccccc2)SC1=S)Nc1ccc(O)cc1 [N-(4-hydroxyphenyl)-4-[(5Z)-4-oxo-5-(phenylmethylene)-2-sulfanylidene-3-thiazolidinyl]butanamide] | 8710 |
| CCC(Sc1nc2ccsc2c(=O)n1Cc1ccc(C(=O)O)cc1)C(=O)Nc1ccc(Cl)cc1 (centres undefined) [MLS-0435427.0001] | > 32000 |
| COc1ccc(/C=C2\SC(=S)N(CCCC(=O)Nc3cccc(C(=O)O)c3)C2=O)cc1OC [3-[4-[(5Z)-5-[(3,4-dimethoxyphenyl)methylidene]-4-oxidanylidene-2-sulfanylidene-1,3-thiazolidin-3-yl]butanoylamino]benzoic acid] | 607 |
| COc1ccc(/C=C2\SC(=S)N(CCCC(=O)Nc3ccc(O)cc3)C2=O)cc1 [MLS-0304362.0001] | 1160 |
| Cc1ccc(C)c(OCCC(=O)NCCc2ccc(S(N)(=O)=O)cc2)c1 | > 32000 |
| Clc1ccccc1Cn1ncc2c(N3CCN(c4ccccc4)CC3)ncnc21 | > 32000 |
| c1ccc(-c2n[n+](-c3ccccc3)c(-c3ccccc3)s2)cc1 | > 32000 |
| Clc1ccc(Cn2ncc3c(N4CCN(c5ccccc5)CC4)ncnc32)cc1 | 7170 |
| Cc1ccc(OCCC(=O)NCCc2ccc(S(N)(=O)=O)cc2)cc1 [MLS-0213737.0001] | > 32000 |
| O=C(Nc1ccc2nc(SCc3ccc(Cl)cc3)sc2c1)c1ccccc1C(=O)N1CCOCC1 | 554 |
| Cc1ccccc1OCCC(=O)NCCc1ccc(S(N)(=O)=O)cc1 [MLS-0213188.0001] | > 32000 |
| CC(C)c1ccc(NC(=O)CSc2nc3ccsc3c(=O)n2Cc2ccc(C(=O)O)cc2)cc1 [4-[[4-oxo-2-[2-oxo-2-(4-propan-2-ylanilino)ethyl]sulfanylthieno[3,2-d]pyrimidin-3-yl]methyl]benzoic acid] | 1330 |
| O=C(CCCN1C(=O)/C(=C/c2ccc3c(c2)OCO3)SC1=S)Nc1ccc(C(=O)O)cc1 [SMR000664854] | 1180 |
| Cc1ccc(Cn2ncc3c(N4CCN(c5ccccc5C)CC4)ncnc32)cc1 [1-(4-methylbenzyl)-4-[4-(2-methylphenyl)-1-piperazinyl]-1H-pyrazolo[3,4-d]pyrimidine] | 2650 |

Now from value to molecule:

| IC50 [nM] | SMILES |
| --- | --- |
| 1420 | Cc1ccc(/C=C2\SC(=S)N(CCCC(=O)Nc3ccc(O)cc3)C2=O)cc1 [MLS000777252] |
| > 32000 | COC(=O)CSc1nc2ccc(NC(=O)c3ccccc3C(=O)N3CCOCC3)cc2s1 [methyl 2-[[6-[(2-morpholin-4-ylcarbonylphenyl)carbonylamino]-1,3-benzothiazol-2-yl]sulfanyl]ethanoate] |
| 300 | O=C(CCCN1C(=O)/C(=C/c2ccc3c(c2)OCO3)SC1=S)Nc1ccc(C(=O)O)c(O)c1 [4-[[4-[(5Z)-5-(1,3-benzodioxol-5-ylmethylidene)-4-oxo-2-sulfanylidene-3-thiazolidinyl]-1-oxobutyl]amino]-2-hydroxybenzoic acid] |
| 1170 | O=C(CCCN1C(=O)S/C(=C/C=C/c2ccccc2)C1=O)Nc1ccc(C(=O)O)cc1 [4-[4-[(5E)-2,4-dioxo-5-[(E)-3-phenylprop-2-enylidene]-1,3-thiazolidin-3-yl]butanoylamino]benzoic acid] |
| > 32000 | COc1ccc(Cn2c(SCC(=O)Nc3ccc(C)c(C)c3)nc3ccsc3c2=O)cc1 |
| > 32000 | Cc1c(C(=O)Nc2ccc3c(c2)OCCO3)sc2ncnc(O)c12 [N-(2,3-dihydro-1,4-benzodioxin-6-yl)-5-methyl-4-oxo-3H-thieno[2,3-d]pyrimidine-6-carboxamide] |
| 2230 | CC(C)(C)c1ccc(OCCC(=O)NCCc2ccc(S(N)(=O)=O)cc2)cc1 [MLS001151090] |
| > 32000 | Cc1c(C(=O)Nc2ccc3c(c2)OCCO3)sc2ncnc(N3CCCCC3C)c12 (centres undefined) [MLS-0359029.0001] |
| 1610 | O=C(Nc1ccc2nc(SCc3ccccc3)sc2c1)c1ccccc1C(=O)N1CCOCC1 [2-[4-morpholinyl(oxo)methyl]-N-[2-(phenylmethylthio)-1,3-benzothiazol-6-yl]benzamide] |
| 105 | CC(/C=C1\SC(=S)N(CCCC(=O)Nc2ccc(C(=O)O)cc2)C1=O)=C\c1ccccc1 [4-[4-[(5Z)-5-[(E)-2-methyl-3-phenyl-prop-2-enylidene]-4-oxidanylidene-2-sulfanylidene-1,3-thiazolidin-3-yl]butanoylamino]benzoic acid] |
| > 32000 | O=C(Nc1ccc2nc(SCc3ccc(Cl)c(Cl)c3)sc2c1)c1ccccc1Br |
| > 32000 | CCc1ccc(NC(=O)CSc2nc3ccsc3c(=O)n2Cc2ccc(OC)cc2)cc1 [N-(4-ethylphenyl)-2-[[3-[(4-methoxyphenyl)methyl]-4-oxo-2-thieno[3,2-d]pyrimidinyl]thio]acetamide] |
| 1680 | O=C(CCCN1C(=O)/C(=C\c2ccccc2)SC1=S)Nc1ccc(C(=O)O)cc1 [4-[[1-oxo-4-[(5E)-4-oxo-5-(phenylmethylene)-2-sulfanylidene-3-thiazolidinyl]butyl]amino]benzoic acid] |
| 71.8 | CCc1ccc(/C=C2\SC(=S)N(CCCC(=O)Nc3ccc(C(=O)O)cc3)C2=O)cc1 [SMR000646238] |
| 1170 | O=C(CCCN1C(=O)S/C(=C\C=C\c2ccccc2)C1=O)Nc1ccc(C(=O)O)cc1 [MLS000948015] |
| 983 | O=C(CCCN1C(=O)/C(=C/c2ccc3c(c2)OCO3)SC1=S)Nc1cccc(C(=O)O)c1 [3-[[4-[(5Z)-5-(1,3-benzodioxol-5-ylmethylidene)-4-oxo-2-sulfanylidene-3-thiazolidinyl]-1-oxobutyl]amino]benzoic acid] |
| 240 | Cc1ccc(/C=C2\SC(=S)N(CCCC(=O)Nc3cccc(C(=O)O)c3)C2=O)cc1 [MLS001034563] |
| 6100 | Cc1nc(N2CCC(C)CC2)c2c(C)c(C(=O)Nc3ccc(C)c(F)c3)sc2n1 [MLS-0244945.0001] |
| > 32000 | Fc1ccc(N2CCN(c3ncnc4c3cnn4Cc3ccc(Cl)cc3Cl)CC2)cc1 [MLS-0435440.0001] |

Same assay, conditions: inactive by the depositor's call

| SMILES | IC50 [nM] |
| --- | --- |
| Cc1nc(N2CCC(C)CC2)c2c(C)c(C(=O)Nc3ccccc3C(F)(F)F)sc2n1 [SMR000312025] | 10200 |
| O=C(CCCN1C(=O)/C(=C/c2cccs2)SC1=S)Nc1ccc(O)cc1 | 10700 |
| CCOc1ccc(NC(=O)CSc2nc3ccsc3c(=O)n2Cc2ccc(C(=O)O)cc2)cc1 | 12500 |
| c1ccc(Cn2ncc3c(N4CCN(c5ccccc5)CC4)ncnc32)cc1 [1-(phenylmethyl)-4-(4-phenylpiperazin-1-yl)pyrazolo[3,4-d]pyrimidine] | 17000 |

The next lines start with the values.

| IC50 [nM] | SMILES |
| --- | --- |
| 11800 | O=C(CCCN1C(=O)/C(=C\c2ccccc2)SC1=S)Nc1ccc(O)cc1 [N-(4-hydroxyphenyl)-4-[(5E)-4-oxidanylidene-5-(phenylmethylidene)-2-sulfanylidene-1,3-thiazolidin-3-yl]butanamide] |
| 11000 | O=C(CCCN1C(=O)/C(=C\c2cccs2)SC1=S)Nc1ccc(O)cc1 [N-(4-hydroxyphenyl)-4-[(5E)-4-oxo-2-sulfanylidene-5-(thiophen-2-ylmethylidene)-1,3-thiazolidin-3-yl]butanamide] |
